Results reported in ChEMBL document CHEMBL4311986, “Synthesis and biological evaluation of new multi-target 3-(1H-indol-3-yl)pyrrolidine-2,5-dione derivatives with potential antidepressant effect” (Eur J Med Chem, 2019).

Columns and labels:
[1] = system: Mus musculus; assay: Induction of hypothermia in CD-1 mouse assessed as change in body temperature at 20 mg/kg, ip measured after 120 mins by thermometric method; type: functional, organism-based
[2] = biological target: Sodium-dependent serotonin transporter (Homo sapiens, UniProt P31645); assay: Displacement of [3H]-imipramine from human serotonin transporter expressed in HEK293 cells membranes incubated for 30 mins by microbeta scintillation counting analysis; type: cell membranes
[3] = system: Mus musculus; assay: Induction of hypothermia in CD-1 mouse assessed as change in body temperature at 10 mg/kg, ip measured after 30 mins by thermometric method; type: functional, organism-based
[4] = system: Mus musculus; assay: Induction of hypothermia in CD-1 mouse assessed as change in body temperature at 20 mg/kg, ip measured after 30 mins by thermometric method; type: functional, organism-based
[5] = system: Mus musculus; assay: Induction of hypothermia in CD-1 mouse assessed as change in body temperature at 5 mg/kg, ip measured after 60 mins by thermometric method; type: functional, organism-based
[6] = Half life in human liver microsomes at 1 uM measured for 5 to 30 mins in presence of NADPH by LC-MS/MS analysis; type: ADME, Microsome
[7] = system: Mus musculus; assay: Induction of hypothermia in CD-1 mouse assessed as change in body temperature at 10 mg/kg, ip measured after 60 mins by thermometric method; type: functional, organism-based
[8] = system: Mus musculus; assay: Induction of hypothermia in CD-1 mouse assessed as change in body temperature at 10 mg/kg, ip measured after 90 mins by thermometric method; type: functional, organism-based
[9] = system: Mus musculus; assay: Induction of hypothermia in CD-1 mouse assessed as change in body temperature at 20 mg/kg, ip measured after 90 mins by thermometric method; type: functional, organism-based
[10] = system: Mus musculus; assay: Induction of hypothermia in CD-1 mouse assessed as change in body temperature at 5 mg/kg, ip measured after 30 mins by thermometric method; type: functional, organism-based
[11] = system: Mus musculus; assay: Induction of hypothermia in CD-1 mouse assessed as change in body temperature at 10 mg/kg, ip pretreated for 60 mins with 5-HT1AR antagonist WAY100635 followed by compound treatment and measured after 30 mins by thermometric method; type: functional, organism-based
[12] = system: Mus musculus; assay: Induction of hypothermia in CD-1 mouse assessed as change in body temperature at 10 mg/kg, ip pretreated for 30 mins with 5-HT1AR antagonist WAY100635 followed by compound treatment and measured after 30 mins by thermometric method; type: functional, organism-based
[13] = system: Mus musculus; assay: Induction of hypothermia in CD-1 mouse assessed as change in body temperature at 10 mg/kg, ip measured after 120 mins by thermometric method; type: functional, organism-based
[14] = biological target: 5-hydroxytryptamine receptor 7 (Homo sapiens, UniProt P34969); assay: Displacement of [3H]-5-CT from human 5HT7 receptor expressed in HEK293 cells incubated for 1 hr by liquid scintillation counting method; type: cell-based
[15] = system: Mus musculus; assay: Induction of hypothermia in CD-1 mouse assessed as change in body temperature at 20 mg/kg, ip measured after 60 mins by thermometric method; type: functional, organism-based
[16] = system: Mus musculus; assay: Induction of hypothermia in CD-1 mouse assessed as change in body temperature at 5 mg/kg, ip measured after 120 mins by thermometric method; type: functional, organism-based
[17] = biological target: 5-hydroxytryptamine receptor 6 (Homo sapiens, UniProt P50406); assay: Displacement of [3H]-LSD from human 5-HT6 receptor expressed in HEK293 cells incubated for 1 hr by liquid scintillation counting method; type: cell-based
[18] = system: Mus musculus; assay: Induction of hypothermia in CD-1 mouse assessed as change in body temperature at 5 mg/kg, ip measured after 90 mins by thermometric method; type: functional, organism-based
[19] = biological target: T1, 5-hydroxytryptamine receptor 1A (Homo sapiens, UniProt P08908); assay: biochemical
T1 sequence (P08908 whole entry): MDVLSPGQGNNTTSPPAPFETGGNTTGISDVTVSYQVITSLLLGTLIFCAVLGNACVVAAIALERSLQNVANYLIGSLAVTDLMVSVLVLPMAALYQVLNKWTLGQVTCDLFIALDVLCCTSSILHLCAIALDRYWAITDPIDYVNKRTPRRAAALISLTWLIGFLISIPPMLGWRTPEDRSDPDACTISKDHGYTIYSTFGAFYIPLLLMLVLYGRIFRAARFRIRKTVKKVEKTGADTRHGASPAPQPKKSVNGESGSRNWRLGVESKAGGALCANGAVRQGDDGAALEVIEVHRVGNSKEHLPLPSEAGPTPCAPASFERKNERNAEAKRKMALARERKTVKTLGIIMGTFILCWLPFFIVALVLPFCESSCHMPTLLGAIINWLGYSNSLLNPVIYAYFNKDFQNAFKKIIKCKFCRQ

[20] = biological target: D(2) dopamine receptor (Homo sapiens, UniProt P14416); assay: Displacement of [3H]-raclopride from human D2L receptor expressed in HEK293 cells incubated for 1 hr by liquid scintillation counting method; type: cell-based
Sequence of D(2) dopamine receptor (P14416 whole entry): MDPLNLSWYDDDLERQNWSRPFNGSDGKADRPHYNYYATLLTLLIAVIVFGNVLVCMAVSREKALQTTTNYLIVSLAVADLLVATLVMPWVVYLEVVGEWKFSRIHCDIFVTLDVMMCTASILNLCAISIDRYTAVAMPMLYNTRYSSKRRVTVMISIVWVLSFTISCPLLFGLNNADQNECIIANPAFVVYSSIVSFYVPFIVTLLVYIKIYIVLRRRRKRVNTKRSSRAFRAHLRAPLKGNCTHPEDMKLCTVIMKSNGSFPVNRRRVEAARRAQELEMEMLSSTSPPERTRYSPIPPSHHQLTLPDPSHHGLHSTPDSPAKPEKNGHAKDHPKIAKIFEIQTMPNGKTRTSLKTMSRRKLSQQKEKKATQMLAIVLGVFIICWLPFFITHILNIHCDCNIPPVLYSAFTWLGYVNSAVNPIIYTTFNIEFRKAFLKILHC

Sequence of Sodium-dependent serotonin transporter (P31645 whole entry): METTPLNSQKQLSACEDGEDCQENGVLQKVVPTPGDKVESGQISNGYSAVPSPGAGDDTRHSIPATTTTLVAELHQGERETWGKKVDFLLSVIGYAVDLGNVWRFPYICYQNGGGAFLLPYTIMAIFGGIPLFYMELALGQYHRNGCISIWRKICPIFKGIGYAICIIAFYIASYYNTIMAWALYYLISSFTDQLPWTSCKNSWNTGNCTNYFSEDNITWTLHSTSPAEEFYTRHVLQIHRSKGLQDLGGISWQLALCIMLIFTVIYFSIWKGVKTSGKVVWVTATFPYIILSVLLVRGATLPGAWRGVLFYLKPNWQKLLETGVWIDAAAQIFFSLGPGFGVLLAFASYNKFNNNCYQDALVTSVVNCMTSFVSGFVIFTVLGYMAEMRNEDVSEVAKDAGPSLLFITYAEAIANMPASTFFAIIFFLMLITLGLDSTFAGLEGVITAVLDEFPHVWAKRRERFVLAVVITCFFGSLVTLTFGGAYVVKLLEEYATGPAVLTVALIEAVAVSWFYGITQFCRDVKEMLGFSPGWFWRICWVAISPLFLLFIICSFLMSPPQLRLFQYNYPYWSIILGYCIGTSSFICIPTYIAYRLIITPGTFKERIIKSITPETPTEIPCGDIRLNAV
Sequence of 5-hydroxytryptamine receptor 7 (P34969 whole entry): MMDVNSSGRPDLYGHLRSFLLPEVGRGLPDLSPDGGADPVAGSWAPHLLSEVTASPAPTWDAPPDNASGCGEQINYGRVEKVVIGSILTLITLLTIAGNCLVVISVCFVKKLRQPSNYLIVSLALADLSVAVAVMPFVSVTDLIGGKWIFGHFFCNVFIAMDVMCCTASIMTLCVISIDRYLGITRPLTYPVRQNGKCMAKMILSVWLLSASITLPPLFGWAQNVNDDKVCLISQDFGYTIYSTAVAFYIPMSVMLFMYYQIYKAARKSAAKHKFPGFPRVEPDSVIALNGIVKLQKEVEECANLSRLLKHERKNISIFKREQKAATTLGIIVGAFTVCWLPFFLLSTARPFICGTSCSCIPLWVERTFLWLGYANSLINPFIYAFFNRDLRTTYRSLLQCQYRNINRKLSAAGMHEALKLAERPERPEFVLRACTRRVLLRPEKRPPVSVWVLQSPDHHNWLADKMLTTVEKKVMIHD
Sequence of 5-hydroxytryptamine receptor 6 (P50406 whole entry): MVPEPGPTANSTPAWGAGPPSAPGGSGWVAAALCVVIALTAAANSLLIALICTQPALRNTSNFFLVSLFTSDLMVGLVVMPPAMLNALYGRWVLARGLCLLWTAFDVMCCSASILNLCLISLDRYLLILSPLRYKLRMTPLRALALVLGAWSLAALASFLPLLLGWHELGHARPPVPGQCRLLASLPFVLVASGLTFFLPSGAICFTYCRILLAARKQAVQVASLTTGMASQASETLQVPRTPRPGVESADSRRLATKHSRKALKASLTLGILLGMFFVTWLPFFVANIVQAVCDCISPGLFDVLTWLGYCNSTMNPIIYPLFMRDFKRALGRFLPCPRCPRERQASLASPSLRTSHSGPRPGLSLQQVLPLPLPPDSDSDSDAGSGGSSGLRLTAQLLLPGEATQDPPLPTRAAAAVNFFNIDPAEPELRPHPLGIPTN

Q: Which deltaT [1] does the source give for `COc1ccc2[nH]cc(C3CC(=O)N(CCCCN4CCC(c5c[nH]c6ccc(F)cc56)CC4)C3=O)c2c1` (stereo not drawn) here?
A: The deltaT was 0.6 °C.

Q: What about the Ki [2] of the same compound?
A: The Ki was 17.5 nM.

Q: What about the deltaT [3] of the same compound?
A: The deltaT was -1.3 °C.

Q: And the deltaT [4]?
A: The deltaT was -1.8 °C.

Q: What about the deltaT [5] of the same compound?
A: Its deltaT is 0.4 °C.

Q: What about the half-life at 1 µM [6] of the same compound?
A: The half-life at 1 µM was 9.9 min.

Q: And the deltaT [7]?
A: The deltaT was -0.1 °C.

Q: What about the deltaT [8] of the same compound?
A: Its deltaT is 0.3 °C.

Q: And the deltaT [9]?
A: The deltaT was 0.6 °C.

Q: What about the deltaT [10] of the same compound?
A: The deltaT was -0.1 °C.

Q: And the deltaT [11]?
A: The deltaT was -0.2 °C.

Q: And the deltaT [12]?
A: Its deltaT is -0.1 °C.

Q: And the deltaT [13]?
A: Its deltaT is 0.4 °C.

Q: And the Ki [14]?
A: The Ki was 641 nM.

Q: What about the deltaT [15] of the same compound?
A: The deltaT was 0.5 °C.

Q: What about the deltaT [16] of the same compound?
A: The deltaT was -0.4 °C.

Q: And the Ki [17]?
A: The Ki was 85 nM.

Q: What about the deltaT [18] of the same compound?
A: The deltaT was 0.1 °C.

Q: What about the Ki [19] of the same compound?
A: The Ki was 4.9 nM.

Q: What about the Ki [20] of the same compound?
A: The Ki was 62 nM.

Q: For `CN(C)C(=O)N[C@H]1CC[C@H](CCN2CCN(c3cccc(Cl)c3Cl)CC2)CC1` [CARIPRAZINE], which Ki [14] is on record?
A: Its Ki is 111 nM.

Q: With `O=C1CC(c2c[nH]c3ccc(F)cc23)C(=O)N1CCN1CCC(c2c[nH]c3ccccc23)CC1` (stereo not drawn) as the compound, how does the Ki [2] read?
A: Its Ki is 102 nM.

Q: And the Ki [19]?
A: The Ki was 320 nM.

Q: With `COc1ccc2[nH]cc(C3CCN(CCN4C(=O)CC(c5c[nH]c6ccc(OC)cc56)C4=O)CC3)c2c1` (stereo not drawn) as the compound, how does the Ki [2] read?
A: Its Ki is 63 nM.

Q: What about the Ki [19] of the same compound?
A: The Ki was 240 nM.

Q: Which results are given for `COc1ccc2[nH]cc(C3CC(=O)N(CCCN4CCC(c5c[nH]c6ccc(F)cc56)CC4)C3=O)c2c1` (stereo not drawn)?
A: Ki [2]: 30 nM; Ki [19]: 246 nM

Q: Which Ki [2] does the source give for `O=C1CC(c2c[nH]c3ccc(F)cc23)C(=O)N1CCN1CCC(c2c[nH]c3ccc(F)cc23)CC1` (stereo not drawn) here?
A: Its Ki is 314 nM.

Q: What about the Ki [19] of the same compound?
A: Its Ki is 700 nM.

Q: For `O=C1CC(c2c[nH]c3ccc(F)cc23)C(=O)N1CCCN1CCC(c2c[nH]c3ccccc23)CC1` (stereo not drawn), which Ki [2] is on record?
A: Its Ki is 151 nM.

Q: What about the Ki [19] of the same compound?
A: Its Ki is 143 nM.

Q: Which results are given for `COc1ccc2[nH]cc(C3CCN(CCN4C(=O)CC(c5c[nH]c6ccc(F)cc56)C4=O)CC3)c2c1` (stereo not drawn)?
A: Ki [2]: 1310 nM; Ki [19]: > 5000 nM

Q: What does the source list for `COc1ccc2[nH]cc(C3CCN(CCCN4C(=O)CC(c5c[nH]c6ccc(F)cc56)C4=O)CC3)c2c1` (stereo not drawn)?
A: Ki [2]: 156 nM; Ki [19]: 157 nM

Q: Which Ki [19] does the source give for `COc1ccc2[nH]cc(C3CCCN(CCCCN4C(=O)CC(c5c[nH]c6ccc(OC)cc56)C4=O)C3)c2c1` (stereo not drawn) here?
A: The Ki was 52 nM.

Q: What does the source list for `COc1ccc2[nH]cc(C3CC(=O)N(CCCN4CCC(c5c[nH]c6ccccc56)CC4)C3=O)c2c1` (stereo not drawn)?
A: Ki [2]: 523 nM; Ki [19]: 204 nM
